The target in this test is ROCK2 (human) (UniProt O75116). The test can be described thus: Inhibition of ROCK2 Kinase Activity.
Sequence of ROCK2 (human) (O75116 whole entry, looked up): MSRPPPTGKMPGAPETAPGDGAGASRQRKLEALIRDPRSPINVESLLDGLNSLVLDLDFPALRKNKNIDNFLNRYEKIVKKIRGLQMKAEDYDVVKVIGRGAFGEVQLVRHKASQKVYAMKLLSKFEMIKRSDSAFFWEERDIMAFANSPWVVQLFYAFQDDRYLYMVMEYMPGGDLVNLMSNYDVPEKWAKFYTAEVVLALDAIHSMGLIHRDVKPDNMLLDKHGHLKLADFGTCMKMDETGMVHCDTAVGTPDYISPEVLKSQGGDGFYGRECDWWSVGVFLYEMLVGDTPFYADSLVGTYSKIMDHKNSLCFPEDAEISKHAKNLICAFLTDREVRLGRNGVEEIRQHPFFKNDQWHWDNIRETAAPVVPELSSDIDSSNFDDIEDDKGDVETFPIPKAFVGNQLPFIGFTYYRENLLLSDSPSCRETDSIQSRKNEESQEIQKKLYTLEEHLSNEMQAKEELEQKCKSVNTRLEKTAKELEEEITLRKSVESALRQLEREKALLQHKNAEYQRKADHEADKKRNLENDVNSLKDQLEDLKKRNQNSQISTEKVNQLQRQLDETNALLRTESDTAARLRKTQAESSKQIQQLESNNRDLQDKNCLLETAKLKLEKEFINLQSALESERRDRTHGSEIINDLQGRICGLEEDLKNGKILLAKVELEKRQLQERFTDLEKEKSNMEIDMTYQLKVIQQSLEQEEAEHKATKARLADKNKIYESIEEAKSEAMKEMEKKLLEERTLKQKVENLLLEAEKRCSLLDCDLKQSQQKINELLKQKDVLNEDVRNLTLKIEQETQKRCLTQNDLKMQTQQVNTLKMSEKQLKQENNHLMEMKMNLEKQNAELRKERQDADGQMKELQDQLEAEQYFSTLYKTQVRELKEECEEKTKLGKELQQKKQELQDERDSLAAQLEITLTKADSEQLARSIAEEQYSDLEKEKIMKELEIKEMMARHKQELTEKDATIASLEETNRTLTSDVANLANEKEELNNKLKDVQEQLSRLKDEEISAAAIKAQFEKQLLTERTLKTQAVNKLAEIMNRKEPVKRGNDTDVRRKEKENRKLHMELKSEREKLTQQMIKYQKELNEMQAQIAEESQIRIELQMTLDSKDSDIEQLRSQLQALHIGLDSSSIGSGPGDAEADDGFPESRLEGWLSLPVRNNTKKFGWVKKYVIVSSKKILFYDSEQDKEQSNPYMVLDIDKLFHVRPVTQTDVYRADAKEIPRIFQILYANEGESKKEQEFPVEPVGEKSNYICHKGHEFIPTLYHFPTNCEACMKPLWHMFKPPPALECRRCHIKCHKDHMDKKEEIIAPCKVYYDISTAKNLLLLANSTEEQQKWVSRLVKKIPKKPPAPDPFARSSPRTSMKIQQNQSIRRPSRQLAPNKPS
In the case of `NC(CC(=O)NCCc1ccc(Cl)cc1Cl)c1ccc(C(=O)Nc2ccncc2)cc1` (centres undefined), the IC50 (commonly the concentration that gives 50% inhibition) lay in the range of 50 to 500 nM. The result for `NC(CNC(=S)Nc1ccc(C(F)(F)F)cc1)c1ccc(C(=O)Nc2ccncc2)cc1` (centres undefined) reads 500 to 5000 nM; that for `NC(CC(=O)Nc1cc(-c2ccco2)[nH]n1)c1ccc(C(=O)Nc2ccncc2)cc1` (centres undefined), 50 to 500 nM.

The molecule `Cc1ccc(CC(=O)NCC(N)c2ccc(C(=O)Nc3ccncc3)cc2)cc1` (centres undefined) gave an IC50 of 50 to 500 nM. The result for `NC(CNC(=O)Nc1ccccc1F)c1ccc(C(=O)Nc2ccncc2)cc1` (centres undefined) reads 50 to 500 nM; that for `Cc1ccccc1C(=O)NCC(N)c1ccc(C(=O)Nc2ccncc2)cc1` (centres undefined), 500 to 5000 nM; that for `NC(CNC(=O)c1ccc(=O)[nH]n1)c1ccc(C(=O)Nc2ccncc2)cc1` (centres undefined), 500 to 5000 nM.

`CCCCC(=O)NCC(N)c1ccc(C(=O)Nc2ccncc2)cc1` (centres undefined) gave an IC50 of 500 to 5000 nM. The figure for `NC(CNC(=O)Cc1c(F)cccc1F)c1ccc(C(=O)Nc2ccncc2)cc1` (centres undefined) is 500 to 5000 nM; for `NC(c1ccc(C(=O)Nc2ccncc2)cc1)C1CCCN1C(=O)Cc1c(F)cccc1F` (centres undefined) it is 500 to 5000 nM; for `Cc1ccc(CN2CCC(NC(=O)CC(N)c3ccc(C(=O)Nc4ccncc4)cc3)CC2)s1` (centres undefined) it is 50 to 500 nM. `NC(CNC(=O)Cc1csc(-c2ccccc2)n1)c1ccc(C(=O)Nc2ccncc2)cc1` (centres undefined) displayed a concentration for half-maximal inhibition (IC50) of 50 to 500 nM.

In turn, `CC(C)(C(=O)N1CCCC1C(N)c1ccc(C(=O)Nc2ccncc2)cc1)c1ccc(Cl)cc1` (centres undefined) displayed an IC50 of 500 to 5000 nM. The figure for `NC(CNC(=O)c1cccc(S(=O)(=O)Nc2ccccc2)c1)c1ccc(C(=O)Nc2ccncc2)cc1` (centres undefined) is 500 to 5000 nM. The figure for `NC(CNC(=O)c1cccc(F)c1)c1ccc(C(=O)Nc2ccncc2)cc1` (centres undefined) is 500 to 5000 nM. Molecule `CC(C)(C(=O)NCC(N)c1ccc(C(=O)Nc2ccncc2)cc1)c1ccc(Cl)c(Cl)c1` (centres undefined) gave an IC50 of 50 to 500 nM. The result for `N[C@H](CNC(=O)C1(c2ccc(Cl)cc2)CC1)c1ccc(C(=O)Nc2ccncc2)cc1` reads 50 to 500 nM; that for `CC(C)(C(=S)NCC(N)c1ccc(C(=O)Nc2ccncc2)cc1)c1ccc(F)cc1` (centres undefined), 50 to 500 nM; that for `CC(C)CCC(=O)NCC(N)c1ccc(C(=O)Nc2ccncc2)cc1` (centres undefined), 500 to 5000 nM. The result for `NC(CNC(=O)CC1Cc2ccccc2C1)c1ccc(C(=O)Nc2ccncc2)cc1` (centres undefined) reads 50 to 500 nM. The result for `CN(CC(N)c1ccc(C(=O)Nc2ccncc2)cc1)C(=O)C1CCCc2sccc21` (centres undefined) reads 500 to 5000 nM. In turn, `Cc1cc(Cl)ccc1NC(=O)NCC(N)c1ccc(C(=O)Nc2ccncc2)cc1` (centres undefined) had an IC50 of 50 to 500 nM. For the molecule `NC(CC(=O)NC1c2ccccc2-c2ccccc21)c1ccc(C(=O)Nc2ccncc2)cc1` (centres undefined), the 50% inhibitory concentration (IC50) was 50 to 500 nM. The figure for `COc1ccc(C2(C(=O)NCC(N)c3ccc(C(=O)Nc4ccncc4)cc3)CCCC2)cc1` (centres undefined) is 50 to 500 nM; for `NC(CNC(=O)CNC(=O)c1ccccc1)c1ccc(C(=O)Nc2ccncc2)cc1` (centres undefined) it is 50 to 500 nM. The figure for `CN(CC(N)c1ccc(C(=O)Nc2ccncc2)cc1)C(=O)C1(c2ccc(F)c(F)c2)CC1` (centres undefined) is 500 to 5000 nM. The result for `NC(c1ccc(C(=O)Nc2ccncc2)cc1)C1CCCN1C(=O)C1(c2ccc(F)c(F)c2)CCCC1` (centres undefined) reads 500 to 5000 nM. In turn, `CN(CC(N)c1ccc(C(=O)Nc2ccncc2)cc1)C(=O)Cc1cccc(Br)c1` (centres undefined) yielded an IC50 of 500 to 5000 nM.

The molecule `NC(c1ccc(C(=O)Nc2ccncc2)cc1)C1CCCN1C(=O)C1CCCc2sccc21` (centres undefined) returned an IC50 of 50 to 500 nM.

`NC(CC(=O)NCc1ccccc1OC(F)(F)F)c1ccc(C(=O)Nc2ccncc2)cc1` (centres undefined) showed a half-inhibitory concentration (IC50) of 50 to 500 nM. `NC(CC(=O)NCc1cccc([N+](=O)[O-])c1)c1ccc(C(=O)Nc2ccncc2)cc1` (centres undefined): the IC50 lay in the range of 50 to 500 nM. `NC(c1ccc(C(=O)Nc2ccncc2)cc1)C1CCCN1C(=O)C1CCOc2ccc(F)cc21` (centres undefined) gave an IC50 of 500 to 5000 nM. The result for `CC(C)(C)ON=Cc1cccc(C(=O)NCC(N)c2ccc(C(=O)Nc3ccncc3)cc2)c1` (centres undefined) reads 500 to 5000 nM; that for `CC(C)(Cc1ccc(F)cc1)NC(=O)CC(N)c1ccc(C(=O)Nc2ccncc2)cc1` (centres undefined), 50 to 500 nM. The figure for `NC(c1ccc(C(=O)Nc2ccncc2)cc1)C1CCCN1C(=O)C1CC(=O)c2ccccc21` (centres undefined) is 500 to 5000 nM. The result for `NC(CNC(=O)c1cnccn1)c1ccc(C(=O)Nc2ccncc2)cc1` (centres undefined) reads 500 to 5000 nM; that for `Cc1ccc(CNC(=O)CC(N)c2ccc(C(=O)Nc3ccncc3)cc2)cc1` (centres undefined), 50 to 500 nM; that for `NC(CNC(=O)c1cccc(Cn2cccn2)c1)c1ccc(C(=O)Nc2ccncc2)cc1` (centres undefined), 500 to 5000 nM.

Turning to `NC(CC(=O)Nc1ccc2[nH]ccc2c1)c1ccc(C(=O)Nc2ccncc2)cc1` (centres undefined), the concentration for half-maximal inhibition (IC50) fell in the range of 50 to 500 nM. The figure for `NC(CC(=O)N[C@H]1CCc2ccccc21)c1ccc(C(=O)Nc2ccncc2)cc1` (some centres undefined) is 50 to 500 nM; for `NC(CC(=O)Nc1ccc2cc[nH]c2c1)c1ccc(C(=O)Nc2ccncc2)cc1` (centres undefined) it is 50 to 500 nM; for `CN(CC(N)c1ccc(C(=O)Nc2ccncc2)cc1)C(=O)Cc1cccc(F)c1` (centres undefined) it is 500 to 5000 nM.

`CNS(=O)(=O)c1ccc(C(=O)NCC(N)c2ccc(C(=O)Nc3ccncc3)cc2)cc1` (centres undefined): the IC50 is 500 to 5000 nM. The figure for `NC(CC(=O)NCc1cccc(Cl)c1)c1ccc(C(=O)Nc2ccncc2)cc1` (centres undefined) is 50 to 500 nM.

These data come from the Kinase Knowledgebase extract (Sharma et al. 2016).
